For data set [1], the system named is SK-N-MC cells. As to the kind of experiment: MTT survival assay on SK-N-MC brain cancer cells. The settings on record: Homo sapiens, 48 hours. It counts as cell-based. The protocol:
The NCI anti-cancer drug screen model was adopted to test anti-cancer effect of the exemplary compounds from Example 1. The isolated compound 1 from Example 1 was added into the culture media of brain-cancer cells, SK-N-MC, to test for tumor cell survival by MTT assay.
(§1) MTT assay is commonly used to determine cell proliferation, percent of viable cells, and cytotoxicity. MTT (3-[4,5-dimethylthiazol-2-yl]2,5-diphenyltetrazolium bromide) is a yellow dye, which can be absorbed by the living cells and be reduced to purplish blue formazan crystals by succinate tetrazolium reductase in mitochondria. Formazan formation can therefore be used to assess and determine the survival rate of cells.
SK-N-MC cells were suspended and cultured in 10% fetal bovine serum (Life Technologies Inc.) culture medium containing 1% penicillin and 1% streptomycin. The cells were incubated under 5% CO2, 37° C. for 24 hours. After cell proliferation, the cells were washed once with PBS, treated with the trypsin-EDTA, and then centrifuged at 1,200 rpm for 5 minutes to separate cells from supernatant. The cells were re-suspended in fresh culture medium (10 mL) and placed in 96 well plates.
(§2) To each of the 96 well plates containing SK-N-MC, 0.003, 0.01, 0.03, 0.1, and 0.3 μg/ml of compound 1 were add. The 96 well plates were incubated at 37° C., 5% CO2 for 48 hours. Subsequently, in the dark environment to each well of the plates were added 2.5 mg/ml of MTT. The reaction was terminated by addition of 100 μl of lysis buffer after 4 hours. The survival rate of cells was calculated based on the measurement of absorption at the 570 nm wavelength by enzyme immunoassay analyzer. The half maximal inhibitory concentration (IC50) values of compound 1 on SK-N-MC was 0.05 μg/mL. Similarly, another exemplary cancer cell lines, U373MG, were used.
Background: Tetrazolium assays rely on reduction of a dye to a coloured formazan, in cell work by metabolically active cells.

Data set [2] concerns U373MG. Description: MTT survival assay on U373MG cancer cells. It counts as cell-based. As to conditions: Homo sapiens, U373 MG, read-out: half maximal inhibitory concentration (IC50).
Text: as §1, §2

A short description of data set [3]: Determination of Compound 1 in mice brain by LC/MS/MS. It counts as in vivo. The settings on record: male CD-1 mice fed 1 mg/g in 0.5% methylcellulose, brain removed after 15 minute; individual brains 1-3. The protocol: The concentration of compound 1 in brain samples was analyzed by LC/MS/MS spectrometer. Experiments were performed on male CD-1 derived mice weighing 24±2 g (Biolasco Taiwan). The CD-1 mice were fed with 1 mg/g Compound 1 in 0.5% methylcellulose (concentration is 2 mg/mL). The brains of the CD-1 mice were removed after 15 minute and extracted with CH3CN and then centrifuged to prepare supernatant that was analyzed by LC/MS/MS.

In brackets after ≈: the same amount, converted by molar mass. Several values for one entry are separate records, joined by “and”; a condition that tells them apart may be missing. Identical values can stand only once.

As usually defined, the viability is a per cent measure of how many cells are alive, often set against a control. Turning to `COC1=C(OC)C(O)C(C/C=C(\C)CC/C=C(\C)CCC=C(C)C)C(C)C1=O` (centres unmarked) [Compound 1, 4-hydroxy-2,3-dimethoxy-6-methyl-5-(3,7,11-trimethyldodeca-2,6,10-trienyl)cyclohex-2-enone], the viability at 0.003 µg/mL in data set [1] (0.003 μg/ml, read-out: Cell viability rate mean) amounted to 86.3%. In addition, the viability at 0.01 µg/mL in data set [1] (0.01 μg/ml, read-out: Cell viability rate mean) worked out at 76.6%. The viability at 0.03 µg/mL in data set [1] (0.03 μg/ml, read-out: Cell viability rate mean) came out at 63.2%. In data set [1] (0.1 μg/ml, read-out: Cell viability rate mean), the viability at 0.1 µg/mL was determined as 32.9%. Also, in data set [1] (0.3 μg/ml, read-out: Cell viability rate mean), the viability at 0.3 µg/mL came to 23%. Moreover, the values for the IC50 in data set [1] (read-out: half maximal inhibitory concentration (IC50)) and in data set [2] were 0.05 µg/mL (≈ 0.128 µM) and 5.88 µg/mL (≈ 15.1 µM), respectively. Also, the Brain concentration in data set [3] is 30.13 µg/g and 7.59 µg/g and 24.28 µg/g.

The record behind these values is US20130158113A1, “METHODS AND COMPOSITIONS FOR TREATING BRAIN CANCER” (Golden Biotechnology Corporation, priority 2011, published 2013).
